Active and inactive are the calls of the source. The calls are words filed in the database; no cut-off is given here.
Columns and labels:
[1] = tested on: Splenocyte; assay: Immunosuppressive activity in mouse splenocytes assessed as inhibition of allogenic mixed lymphocyte reaction; format: functional, cell-based
[2] = tested on: Splenocyte; assay: Immunosuppressive activity in splenocytes assessed as inhibition of mixed lymphocyte reaction; format: functional, cell-based
[3] = tested on: Splenocyte; assay: Ratio of IC50 of drug to IC50 of cyclosporin A for immunosuppressive activity in mouse splenocytes assessed as inhibition of allogenic mixed lymphocyte reaction; format: functional
[4] = tested on: Mus musculus; assay: Immunosuppressive activity in BALB/c mouse skin allografted C57BL/6 mouse assessed as survival of allograft skin at 1 mg/kg, ip administered daily; format: functional; conditions: route intraperitoneal
[5] = Immunosuppressive activity in LPS-activated B lymphocyte assessed as inhibition of lymphoproliferation after 3 days by beta-scintillation counting; format: functional
[6] = Immunosuppressive activity in concanavalin A-activated T cell assessed as inhibition of lymphoproliferation after 3 days by beta-scintillation counting; format: functional, cell-based
[7] = tested on: RAW264.7; assay: Cytotoxicity against mouse RAW264.7 cells at 0.01 to 10 uM; format: cell-based; conditions: raw264.7, 10 µM
[8] = tested on: RAW264.7; assay: Immunosuppressive activity in mouse RAW264.7 cells assessed as inhibition of LPS-induced NO production at 0.01 to 10 uM; format: functional, cell-based
[9] = tested on: RAW264.7; assay: Immunosuppressive activity in mouse RAW264.7 cells assessed as inhibition of LPS-induced iNOS expression at 0.01 to 10 uM; format: functional, cell-based
[10] = tested on: RAW264.7; assay: Immunosuppressive activity in mouse RAW264.7 cells assessed as inhibition of LPS-induced TNFalpha expression level in at 0.01 to 10 uM; format: functional, cell-based
[11] = tested on: RAW264.7; assay: Immunosuppressive activity in mouse RAW264.7 cells assessed as inhibition of LPS-induced NO production; format: functional, cell-based
[12] = tested on: RAW264.7; assay: Immunosuppressive activity in mouse RAW264.7 cells assessed as inhibition of LPS-induced iNOS expression; format: functional, cell-based
[13] = Cytotoxicity against rat H42E cells assessed as intracellular ATP level; format: cell-based; conditions: read-out: TC50 (the source's name)
[14] = Cytotoxicity against rat H42E cells assessed as alteration in mitochondrial function by MTT assay; format: cell-based; conditions: read-out: TC50 (the source's name)
[15] = Antiproliferative activity against rat H42E cells assessed as cell number; format: cell-based
[16] = Cytotoxicity against rat H42E cells assessed as release of alpha-glutathione S transferase; format: cell-based; conditions: read-out: TC50 (the source's name)
[17] = Mus musculus, Splenocyte, read-out: IC50

IC50 [1] [nM]	IC50 [2, 17] [nM]	Compound	also measured
6600	–	COc1cc2c(c(OC)c1OC)-c1ccc(N(C)C)c(=O)cc1[C@@H](NC(=O)CCCO[N+](=O)[O-])CC2	–
–	15	COc1ccc(C(=O)N[C@H]2CCc3cc(OC)c(OC)c(OC)c3-c3ccc(SC)c(=O)cc32)cc1CO[N+](=O)[O-]	–
–	–	C/C=C/C[C@@H](C)[C@@H](O)[C@H]1C(=O)N[C@@H](CC)C(=O)N(C)CC(=O)N(C)[C@@H](CC(C)C)C(=O)N[C@@H](C(C)C)C(=O)N(C)[C@@H](CC(C)C)C(=O)N[C@@H](C)C(=O)N[C@H](C)C(=O)N(C)[C@@H](CC(C)C)C(=O)N(C)[C@@H](CC(C)C)C(=O)N(C)[C@@H](C(C)C)C(=O)N1C [CYCLOSPORINE]	Survival [4]: 11.8 days
–	89	COc1cc2c(c(OC)c1OC)-c1ccc(SC)c(=O)cc1[C@@H](NC(=O)c1cc(CO[N+](=O)[O-])ccc1Br)CC2	–
–	434	COc1cc2c(c(OC)c1OC)-c1ccc(SC)c(=O)cc1[C@@H](NC(=O)c1cccc(CO[N+](=O)[O-])c1-c1ccccc1)CC2	–
–	700	COc1cc2c(c(OC)c1OC)-c1ccc(SC)c(=O)cc1[C@@H](NC(=O)c1cccc(CO[N+](=O)[O-])c1OC)CC2	–
–	73	COc1cc2c(c(OC)c1OC)-c1ccc(SC)c(=O)cc1[C@@H](NC(=O)c1cc(CO[N+](=O)[O-])ccc1[N+](=O)[O-])CC2	–
> 100000	–	COc1cc2c(c(OC)c1OC)-c1ccc(OC)c(=O)cc1[C@@H](N(C)C(=O)c1cccc(CO[N+](=O)[O-])c1)CC2	–
6300	–	COc1cc2c(c(OC)c1OC)-c1ccc(OC)c(=O)cc1[C@@H](NC(=O)c1cccc(CCl)c1)CC2	–
–	85	COc1cc2c(c(OC)c1OC)-c1ccc(SC)c(=O)cc1[C@@H](NC(=O)c1cccc(CO[N+](=O)[O-])c1I)CC2	–
–	54	COc1cc2c(c(OC)c1OC)-c1ccc(SC)c(=O)cc1[C@@H](NC(=O)c1ccc(-c3ccccc3)c(CO[N+](=O)[O-])c1)CC2	–
–	78	COc1ccc(CO[N+](=O)[O-])cc1C(=O)N[C@H]1CCc2cc(OC)c(OC)c(OC)c2-c2ccc(SC)c(=O)cc21	–
70	–	COc1cc2c(c(OC)c1OC)-c1ccc(OC)c(=O)cc1[C@@H](NC(=O)c1ccc(CO[N+](=O)[O-])cc1)CC2	Ratio IC50 [3]: 5
10	–	COc1cc2c(c(OC)c1OC)-c1ccc(OC)c(=O)cc1[C@@H](NC(=O)CCCO[N+](=O)[O-])CC2	Ratio IC50 [3]: 470
–	290	COc1cc2c(c(OC)c1OC)-c1ccc(SC)c(=O)cc1[C@@H](NC(=O)c1cc(CO[N+](=O)[O-])ccc1C#N)CC2	–
320	–	COc1cc2c(c(OC)c1OC)-c1ccc(OC)c(=O)cc1[C@@H](NC(=O)c1ccc(CCl)cc1)CC2	Ratio IC50 [3]: 7
–	9	COc1cc2c(c(OC)c1OC)-c1ccc(SC)c(=O)cc1[C@@H](NC(=O)c1cccc(CO[N+](=O)[O-])c1[N+](=O)[O-])CC2	IC50 [6]: 7 nM

IC50 [1] [nM]	IC50 [2, 17] [nM]	Compound	also measured
–	89	COc1cc2c(c(OC)c1OC)-c1ccc(SC)c(=O)cc1[C@@H](NC(=O)c1ccc(Br)c(CO[N+](=O)[O-])c1)CC2	–
–	49	COc1cc2c(c(OC)c1OC)-c1ccc(SC)c(=O)cc1[C@@H](NC(=O)c1ccc(C#N)c(CO[N+](=O)[O-])c1)CC2	–
–	55	COc1cc2c(c(OC)c1OC)-c1ccc(SC)c(=O)cc1[C@@H](NC(=O)c1ccc([N+](=O)[O-])c(CO[N+](=O)[O-])c1)CC2	–
10000	–	COc1cc2c(c(OC)c1OC)-c1ccc(N(C)C)c(=O)cc1[C@@H](NC(=O)c1cccc(CO[N+](=O)[O-])c1)CC2	–
–	–	COc1cc2c(c(OC)c1OC)-c1ccc(SC)c(=O)cc1[C@@H](NC(=O)c1cc(CO[N+](=O)[O-])ccc1-c1ccccc1)CC2	IC50 ([2]; splenocyte): Not Active
–	68	COc1cc2c(c(OC)c1OC)-c1ccc(SC)c(=O)cc1[C@@H](NC(=O)c1ccc(I)c(CO[N+](=O)[O-])c1)CC2	–
–	61	COc1cc2c(c(OC)c1OC)-c1ccc(SC)c(=O)cc1[C@@H](NC(=O)c1cccc(CO[N+](=O)[O-])c1Br)CC2	–
2500	–	COc1cc2c(c(OC)c1OC)-c1ccc(N(C)C)c(=O)cc1[C@@H](NC(=O)c1ccc(CO[N+](=O)[O-])cc1)CC2	–
–	4	COc1cc2c(c(OC)c1OC)-c1ccc(SC)c(=O)cc1[C@@H](NC(=O)c1cc(CO[N+](=O)[O-])ccc1Cl)CC2	IC50 [6]: 392 nM
> 100000	–	COc1cc2c(c(OC)c1OC)-c1ccc(OC)c(=O)cc1[C@@H](N(C)C(=O)c1ccc(CO[N+](=O)[O-])cc1)CC2	–
4700	–	COc1cc2c(c(OC)c1OC)-c1ccc(OC)c(=O)cc1[C@@H](NC(=O)CCCCl)CC2	–
–	58	COc1cc2c(c(OC)c1OC)-c1ccc(SC)c(=O)cc1[C@@H](NC(=O)c1cccc(CO[N+](=O)[O-])c1C#N)CC2	–
–	50	COc1cc2c(c(OC)c1OC)-c1ccc(SC)c(=O)cc1[C@@H](NC(=O)c1ccc(Cl)c(CO[N+](=O)[O-])c1)CC2	CC50 [13]: 300000 nM; CC50 [14]: 300000 nM; CC50 [15]: 300000 nM; CC50 [16]: 300000 nM
210	–	COc1cc2c(c(OC)c1OC)-c1ccc(SC)c(=O)cc1[C@@H](NC(=O)CCCO[N+](=O)[O-])CC2	IC50 [5]: 1 nM; IC50 [6]: 582 nM; Activity [7]: Non-toxic
–	103	COc1cc2c(c(OC)c1OC)-c1ccc(SC)c(=O)cc1[C@@H](NC(=O)c1cc(CO[N+](=O)[O-])ccc1I)CC2	–
3500	–	COc1cc2c(c(OC)c1OC)-c1ccc(OC)c(=O)cc1[C@@H](N(C)C(=O)CCCO[N+](=O)[O-])CC2	–

Compound	IC50 [1] [nM]	IC50 [2, 17] [nM]	also measured
COc1cc2c(c(OC)c1OC)-c1ccc(OC)c(=O)cc1[C@@H](NC(=O)c1cccc(CO[N+](=O)[O-])c1)CC2	250	–	Ratio IC50 [3]: 25
COc1cc2c(c(OC)c1OC)-c1ccc(SC)c(=O)cc1[C@@H](NC(=O)c1cccc(CO[N+](=O)[O-])c1)CC2	70	68	IC50 [5]: 1 nM; IC50 [6]: 1 nM; Activity [7]: Non-toxic; inhibition [8]: inactive; inhibition [9]: inactive; inhibition [10]: Active; Activity [11]: Dose-dependent effect; Activity [12]: Dose-dependent effect
COc1cc2c(c(OC)c1OC)-c1ccc(OC)c(=O)cc1[C@@H](NC(C)=O)CC2 [COLCHICINE]	2300	–	IC50 [5]: 7.3 nM; IC50 [6]: 548 nM
COc1cc2c(c(OC)c1OC)-c1ccc(SC)c(=O)cc1[C@@H](NC(=O)c1cccc(CO[N+](=O)[O-])c1Cl)CC2	–	8	IC50 [6]: 3 nM; Survival [4]: 12.3 days
COc1cc2c(c(OC)c1OC)-c1ccc(SC)c(=O)cc1[C@@H](NC(=O)c1cccc(CO[N+](=O)[O-])c1F)CC2	–	65	–
COc1cc2c(c(OC)c1OC)-c1ccc(SC)c(=O)cc1[C@@H](NC(=O)c1cc(CO[N+](=O)[O-])ccc1F)CC2	–	4	–
COc1cc2c(c(OC)c1OC)-c1ccc(SC)c(=O)cc1[C@@H](NC(=O)c1ccc(CO[N+](=O)[O-])cc1)CC2	20	–	IC50 [5]: 349 nM; IC50 [6]: 392 nM
COc1cc2c(c(OC)c1OC)-c1ccc(SC)c(=O)cc1[C@@H](NC(=O)c1ccc(F)c(CO[N+](=O)[O-])c1)CC2	–	31	–

— ChEMBL document CHEMBL1152354, “Design, synthesis and identification of novel colchicine-derived immunosuppressant” (Bioorg Med Chem Lett, 2009)
